From US9683014B2, “Dipeptide mimetics of NGF and BDNF neurotrophins” (UCHREZHDENIE ROSSIISKOI AKADEMII MEDITSYNSKIKH NAUK …, priority 2009, dated 2017)
Where two headings read alike, the source gives them in different places. Marks after values point to notes of the source that are not given here.

Tests used:
Wistar rats [1] = conditions: 1.0 mg/kg i.p. 24 h prior to scopolamine 1.0 mg/kg s.c.; FIG. 2.11
Method: Male Wistar rats weighing 190-220 g were used for this experiment. The test compound was administered intraperitoneally at a dose of 1.0 mg/kg at 24 hours prior to the scopolamine injection (1.0 mg/kg s.c.). The control group was treated with distilled water according to the same regimen. Scopolamine was injected 60 min before placing the animals in a T-shaped maze. Following a further 120 min the animals were subjected to testing in accordance with the original protocol (Deacon R. M. J., Rawlins J. N. P. T-maze alternation in the rodent. Nature Protocols, 2006, 1(1), 7-12).

[2] = tested on: rats with ischemic cerebral infarction; conditions: 1 mg/kg i.p. x3
rats = tested on: rats
Method: The experiments were conducted on white male outbred rats weighing 250-280 g. Haloperidol (1.0 mg/kg i.p.), a D1/D2 dopamine receptor blocker, was used to induce catalepsy. The intensity of catalepsy was assessed by measuring the time during which the animal maintained an assumed posture. The measurements were performed 60 minutes after the haloperidol injection. The test compound was administered intraperitoneally at selected doses (0.01, 0.1, 1.0 and 5.0 mg/kg) 24 hours prior to haloperidol. Control animals were treated with an equivalent volume of distilled water. Statistical data treatment was carried out using the exact Fisher test.

Hsp32 = test: Western blot of Hsp32 in HT-22 cells; assay type: cell-based, mouse; conditions: 24 h after addition; GK-1, GK-2 10^−8 and 10^−5 M; GK-3 10^−6 M; GK-4 10^−7 M; GK-5 10^−6 M
Method: The amount of Hsp70, Hsp32 and pTrkA was determined in the cytoplasmic fraction of HT-22 neuronal cells. For heat shock proteins, a test compound was added to the culture 24 hours prior to testing, before the cells were washed off the culture liquid with PBS. For pTrkA, a test compound was added to the culture immediately prior to the cell lysis just for 1 or 2 min, before the cells were washed off the culture liquid with PBS. Then the cells were mixed with the lysis buffer (50 mM Tris-HCl, 5 mM EDTA, 1 mM DTT, 1% Triton X-100, pH 7.5) at 4° C. and lysed for 5 min, then scraped off, transferred into a 1.5 ml centrifuge tube and centrifuged at 13000 rpm and 4° C. for 10 min. The supernatant containing cytosolic proteins was assayed by electrophoresis and immunoblotting. Proteins were separated on a 10% polyacrylamide gel (PAAG) and transferred from PAAG onto a PVDF membrane by electroelution for 45 min. Western blots were pre-incubated for 1 h in a TBST solution containing 1% Tween-20 and supplemented with 5% (w/v) skim milk. Western blots were then incubated with the primary polyclonal anti-Hsp32 antibody diluted 1:1000 or primary monoclonal anti-Hsp70 antibody diluted 1:1000 or primary monoclonal anti-phosphorylated tyrosine kinase A antibody diluted 1:1000 for 1 hour. Then the blots were washed and incubated with a secondary antibody conjugated to horseradish peroxidase (diluted 1:2000) for 1 hour. The detection of Hsp70, Hsp32 and pTrkA was carried out by the ECL reaction on a Kodak film.

Wistar rats [3] = conditions: 1 mg/kg i.p. x7
Method: The experiments were carried out on male Wistar rats weighing 280-400 g. Animals were anesthetized and scalped followed by being placed in the stereotaxis device. A skewed incision was made in the skull 1 mm wide: the start point for incision was at the level of bregma (AP=0.0) and 2 mm lateral of it (L=±2); the end point for incision was 2 mm caudal of bregma and 1 mm lateral of it (AP=2.0, L=±1). Following the sawing of the skull bone, the dura mater was incised carefully in the sawcut area. A sterile curved needle was inserted into the incision to a depth of 6.2 mm from the bone surface (DV=−6.2). By the simultaneous use of two screws in the stereotaxis device, the needle was moved slowly almost to the end point of the skewed incision. Then the needle was lifted slowly from the incision. The procedure was repeated twice on each hemisphere. Sham operation was similar to the transection procedure except that the needle was inserted to a depth of 3 mm from the bone surface (DV=−3.0). The first injection of the test compound (1 mg/kg i.p.) in the treatment group or of distilled water in the control group was made 2 hours after the transection. Further injections were made every 48 hours. In the course of the experiment each animal received 7 injections of the test compound.
To detect behavioral abnormalities induced by the transection of the septo-hippocampal pathway, the open-field test was used. The choice of this test was based on the following studies: 1) Lamprea M. R., Cardenas F. P., Silveira R., Walsh T. J., Morato S. Effects of septal cholinergic lesion on rat exploratory behavior in an open-field. Braz. J. Med. Biol. Res. 2003, 36(2), 233-238; 2) Cassel J. S., Kelche C., Peterson G. M., Ballough G. P., Goepp I., Will B. Graft-induced behavioral recovery from subcallosal septohippocampal damage in rats depends on maturity stage of donor tissue. Neuroscience, 1991, 45(3), 571-586. Animals were tested in the open-field device 48 hours after the last injection of the test compound (at 14 days after surgery). Differences between experimental groups were assessed according to the Wilcoxon paired test. The data are expressed as the median values for the respective samples.

[4] = tested on: rats with ischemic cerebral infarction; conditions: 7 days after surgery; 1 mg/kg i.p. x3
HT-22 neuronal cell line = test: Viability of HT-22 neuronal cell line without damaging factors (MTT test); assay type: cell-based, mouse; conditions: added at plating and every 24 h for 10 days, control 0.283 ± 0.039
Method: The rat adrenal […] pheochromocytoma cell line PC12 was obtained from the Cell Culture Museum, RAN Institute of Molecular Genetics. The immortalized mouse hippocampal cell line HT-22 was a gift from Prof. F. Viegant, Utrecht University, the Netherlands.
The cells were grown in DMEM medium containing 5% FBS and 2 mM L-glutamine. The cells were incubated at 37° C. and 5% CO2. The growth medium was changed at 24 hours after inoculation and every 3 days thereafter. The cells were re-plated every week into culture flasks with a total area of 75 cm^2.
All types of cells were plated in DMEM medium.

NCCCC[C@H](NC(=O)[C@H](CCC(=O)O)NC(=O)CCC(=O)O)C(=O)NCCCCCCNC(=O)[C@H](CCCCN)NC(=O)[C@H](CCC(=O)O)NC(=O)CCC(=O)O [GK-2, bis-(N-monosuccinyl-glutamyl-lysine) hexamethylenediamide]
scopolamine-induced working memory impairment (spontaneous alternation, T-maze) (Wistar rats [1]): could prevent | limb-placing test score ([2]; day 4 post-ischemia, ischemic rats 3.00±0.38, intact 14): 5.90±0.62 | limb-placing test score ([2]; day 7 post-ischemia, ischemic rats 4.46±0.40, intact 14): 7.67±0.75 | Intensity of catalepsy (% of control) (rats; 0.01 mg/kg i.p. 24 h prior to haloperidol 1.0 mg/kg i.p., measured 60 min after haloperidol): 14* % of control | Intensity of catalepsy (% of control) (rats; 0.1 mg/kg i.p. 24 h prior to haloperidol): 98 % of control | Intensity of catalepsy (% of control) (rats; 1.0 mg/kg i.p. 24 h prior to haloperidol): 25* % of control | Intensity of catalepsy (% of control) (rats; 5.0 mg/kg i.p. 24 h prior to haloperidol): 13* % of control | amount of Hsp32 (Hsp32): increase | horizontal motor activity in the open-field test (median) (Wistar rats [3]; 1st minute, 14 days after surgery, transection 11.5, sham 21): 12.5 | horizontal motor activity in the open-field test (median) (Wistar rats [3]; 2nd minute, transection 12, sham 14): 11.5 | horizontal motor activity in the open-field test (median) (Wistar rats [3]; 3rd minute, transection 19, sham 9.5): 15.5 | horizontal motor activity in the open-field test (median) (Wistar rats [3]; 4th minute, transection 11.5, sham 9): 6.5* | reduction in use of the affected limb and simultaneous use of 2 forelimbs [4]: much less pronounced | Optical density (MTT) (HT-22 neuronal cell line; 10^−5M): 0.357 ± 0.051 | Optical density (MTT) (HT-22 neuronal cell line; 10^−8M): 0.375 ± 0.063
